Data from ChEMBL document CHEMBL3507680, “University of Dundee, Gates Library screen for HepG2 cell viability”.

Assay: Human HepG2 cell viability assay in 384 well format
Assay type: toxicity, cell-based
Design: dose 125 nL, time 70.5 hour; concentration not given beside the values
Conditions: HepG2 cells, read-out: Inhibition

SMILES | cytotoxicity at 70.5 h [%]
COc1nc2cc(C)ccc2cc1CN(C)Cc1n[nH]c2c1CCCC2 | 2.69
CCc1cc(C(C)Nc2nc(-c3cccnc3)nc3c2CNC3)on1 (stereo not given) | -5.83
COc1ccc(CCCC(=O)N2C[C@H](C3CC3)[C@@H](N(C)C)C2)cc1 | -9.86
CNC(=O)CC1CCN(Cc2nc(-c3ccc(SC)cc3)oc2C)CC1 | -6.83
Cc1ccccc1-n1cnnc1SCC1CCCCO1 (stereo not given) | -9.11
CS(=O)(=O)NC[C@@H]1OC[C@H]2CN(C(=O)c3cnccn3)CC[C@H]21 | -1.54
Cc1ccc(NC2CCN(C(=O)Cn3nc(C)cc3C)CC2)nn1 | -6.3
CC[C@@H](C)[C@H](NC(=O)NC1CCS(=O)(=O)C1)C(=O)NCc1ccncc1 (stereo not given in full) | 10.2
CC(C)N1CCC2(CCCNC2)C1=O (stereo not given) | -14.6
COCC1CC2(CCN(CC3CC3)CC2)CN1Cc1csc(C)n1 (stereo not given) | -5.11
Cc1cnn(CC(C)NCc2ccc(C#N)cc2F)c1 (stereo not given) | -4.59
O=C(NCCc1ccccn1)NC1CCN(c2ccccc2)C1=O (stereo not given) | 1.75
CN(CCNC(=O)Nc1ccn(C)n1)Cc1ccc(F)cc1 | -22.5
O=C(CSCC1CC1)N1CCc2[nH]nc(COc3ccccc3)c2C1 | -6.96
CC(C)c1nnsc1CN1CCc2[nH]nc(-c3ccc(F)c(F)c3)c2C1 | -11.6
Clc1ccccc1-c1nnc(CSCCN2CCOCC2)o1 | -2.19
Cc1ncsc1CN1C[C@@H](OCC2CC2)[C@H]2OCCC[C@H]21 | -5.13
Cc1nc(CN2CCCN(CC(=O)N(C)C(C)(C)C#N)CC2)no1 | -10.4
CC(Cc1ccccc1F)C(=O)Nc1ccc(OCCC(N)=O)cc1 (stereo not given) | -3.92
OCc1ccc(-c2nccn2CCc2nc3c(s2)CCCC3)o1 | 9.89
CCc1nnc(Nc2cccc(C3CCCN(CC(C)(C)C)C3)n2)s1 (stereo not given) | -10.7
Cc1cnn(CC2CCCN2Cc2nnc(C3CC3)n2C)c1 (stereo not given) | -8.67
COCC(=O)NC[C@H]1C[C@@H]2CCN1C[C@@H]2CN1CCc2ccccc21 | -3.32
NCC(=O)N1CCCC(O)(CN2CCN(c3ccccc3)CC2)CC1 (stereo not given) | 4.71
CCNCCC(Cc1ccccc1)c1ccco1 (stereo not given) | -8.72
c1cncc(COCc2cncc3c2CCN(Cc2ccoc2)C3)c1 | -9.45
Cc1noc([C@H]2C[C@H]3OCC[C@H]3N(Cc3cccs3)C2)n1 | -3.05

SMILES | cytotoxicity at 70.5 h [%]
O=C(NC(c1ccc(Cl)cc1)C(F)(F)F)c1nc(=O)[nH][nH]1 (stereo not given) | 29.9
CC(NC(=O)NCCNc1ccccn1)c1cccs1 (stereo not given) | -1.83
N#Cc1ccc(N2CC3(CCN(c4nccs4)C3)C2)nc1 | 5.37
CC(C(=O)NCCOc1ccc2c(c1)OCO2)n1cncn1 (stereo not given) | -13.4
Cc1cc(C(=O)Nc2ccc(-c3nnc(N(C)C)o3)cc2)oc1C | 14.7
O=C(NCCn1ccnc1-c1cc2n(n1)CCNC2)c1ccncc1 | -5.81
O=C([C@@H]1COC[C@H]2CN(c3ccncn3)C[C@H]21)N1CCCC1 | 10.6
O=c1nc(SCc2ccncc2)c2c(n1CCO)CCCC2 | 14.9
c1nnc(Nc2cncc(C3CCCN3)n2)s1 (stereo not given) | -7.63
CCN1CCN(S(=O)(=O)c2cnc(NC(C)=O)s2)CC1 | 17.3
COCCC(=O)N1CCC(C(=O)c2cc(C)cnc2N)CC1 | -8.64
Cc1cnc(C(=O)N2C[C@H](N3CCOCC3)[C@@H]3OCCC[C@@H]32)cn1 | -13.1
Cc1nc(CN2C[C@@H]3CN(C(=O)c4cnccn4)C[C@@H]3C2)cs1 | -11.6
CN(C(=O)c1cccc(NCC(=O)O)c1)C(C1CC1)C1CC1 | -8.7
CNc1cncc(C2CCN(C(=O)c3cnco3)CC2)n1 | 9.47
O=C1COC2(CCN(c3ncccn3)CC2)CN1 | -1.8
Cn1ccc(NC(=O)CN2C[C@H]3CC[C@@H]2CN(Cc2ccccn2)C3)n1 | -3.7
O=C1COC2(COCCN(Cc3ccsc3)C2)CN1c1ccoc1 (stereo not given) | 32.5
CCOC(=O)C1CN(S(C)(=O)=O)Cc2ncn(CC)c21 (stereo not given) | -0.182
CCS(=O)(=O)N1CCC2(CCCN(Cc3cc(OC)ccc3F)C2)C1 (stereo not given) | -6.66
c1nc(N2CCCC(Cn3cncn3)C2)c2ccsc2n1 (stereo not given) | 38.8
CC(C)N1CCOC(c2ccnc(N(C)C)n2)C1 (stereo not given) | -3.86
Cc1c(C[S+](C)[O-])cccc1NC(=O)c1cc(Cl)ccn1 (stereo not given) | -2.39
Cc1noc([C@H]2C[C@@H]3CCN(C(=O)C4CCOCC4)C[C@H]3O2)n1 | -1.73
COc1ccnc(N2CCC(=O)N(CC3CC3)C(C(C)C)C2)n1 (stereo not given) | 32.2
CCN1CC2(CCN(CCOc3ccc(F)cc3)CC2)CC1=O | 12.8
N#Cc1ccccc1N1CCC(Nc2nccnc2C#N)CC1 | 0.142

SMILES | cytotoxicity at 70.5 h [%]
Cc1cc(CS(=O)(=O)NC2CCCc3ccccc32)on1 (stereo not given) | -1.17
O=C(CN1CCC(C(=O)c2cc(F)ccc2F)CC1)NC1CCCC1 | 24.6
COCCN1CCN(CC(=O)NC2(C#N)CCCC2)CC1 | -8.93
CN(CCO)Cc1nnc(C2CCN(C[C@H]3[C@@H]4CNC[C@@H]43)CC2)n1C | 9.78
Cn1cc(CN(C(=O)C2COc3ccccc3C2)C2CC2)cn1 (stereo not given) | -9.16
Cc1cccc(CN2C(=O)C[C@H]3[C@@H]2CCN3Cc2cccs2)n1 | 0.507
COCCNC(=O)c1cc(-c2ccc3c(c2)CCO3)n[nH]1 | 15.5
C=C(C)Cn1cc(C(N)=O)nc1C1CC1 | 20.9
CCOc1ccc(Cl)c(C(=O)NC)n1 | 0.647
Cc1nc(CN2CCCC(c3cnccn3)C2)cs1 (stereo not given) | -2.76
Cc1noc(C(C)C)c1C(=O)NS(=O)(=O)c1ccc2c(c1)OCCCO2 | -9.35
CCn1cc(NC(=O)c2c(C)nn(C)c2C)c(C(N)=O)n1 | 19
CN(CCCc1nccn1C)C(=O)C1COc2ccccc2C1 (stereo not given) | -2.53
COc1cc(CN2CCCC[C@]3(C)NC(=O)CC[C@H]23)ccc1F | -6.42
CCc1nnc2n1CCN(C(=O)CCc1ccc3c(c1)OCO3)C2 | -18.7
Cc1cccc(CN2CCC(C3Nc4ccccc4S(=O)(=O)N3)CC2)n1 (stereo not given) | -2.6
COC1CCCOC12CCN(C(=O)NCCc1cccs1)CC2 (stereo not given) | -0.941
CCn1nc(C)c(CCNC(=O)C2CCCN(C(=O)COC)C2)c1C (stereo not given) | 18
CC[C@H]1CN2CC[C@H]1C[C@@H]2CNC(=O)c1ccco1 | -1.78
CC(C)(C)n1cc(C2=CCN(CCNC(N)=O)CC2)cn1 | -0.0754
CN(C)CCOc1ccccc1N1CCN(C(=O)c2ccoc2)CC1 | 2.2
COc1cc(C(=O)N(C)C)ccc1NC(=O)c1ccsc1 | 1.32
Cc1cccc(CO[C@@H]2CC[C@H]3[C@H]2OCCN3Cc2cc(C)on2)n1 | -0.405
Cc1oc(-c2nc(C#N)c(NC3CC3)o2)cc1S(=O)(=O)N1CCCC1 | -25.9
CC(=O)NC1CCc2ccc(S(=O)(=O)NCc3ncccc3C)cc21 (stereo not given) | 39.1
NC(=O)C1CCCN1Cc1cccc(NC(=O)c2cccs2)c1 (stereo not given) | 2.36
